Data taken from patent US20120225062A1 (priority 2011, published 2012).

Tests used:
Pim 1 = Pim 1 (Homo sapiens, UniProt P11309); assay: Pim 1 AlphaScreen assay (high ATP)
Procedure: The activity of Pim 1, Pim 2, & Pim 3 is measured using a homogeneous bead based system quantifying the amount of phosphorylated peptide substrate resulting from kinase-catalyzed phosphoryl transfer to a peptide substrate. Compounds to be tested are dissolved in 100% DMSO and directly distributed to a white 384-well plate at 0.25 μl per well. […] This is followed by the addition of 5 μl/well of Pim 1, Pim 2 or Pim 3 kinase in assay buffer (concentrations described below). Final assay concentrations (described below) are in 2.5% DMSO. The reactions are performed for ˜2 hours, then stopped by the addition of 10 μl of 0.75 μg/ml anti-phospho Ser/Thr antibody (Cell Signaling), 10 μg/ml Protein A AlphaScreen beads (Perkin Elmer), and 10 μg/ml streptavidin coated AlphaScreen beads in stop/detection buffer (50 mM EDTA, 95 mM Tris, pH=7.5, 0.01% Tween-20). The stopped reactions are incubated overnight in the dark. The phosphorylated peptide is detected via an oxygen anion initiated chemiluminescence/fluorescence cascade using the Envision plate reader (Perkin Elmer).

[1] = test system: KMS11 (human myeloma cell line); assay: Cell Proliferation Assay (CellTiter-Glo, 3 days); assay type: cell-based; conditions: KMS-11, 72 h, KMS11-luc cells
Procedure: KMS11 (human myeloma cell line), were cultured in IMDM supplemented with 10% FBS, sodium pyruvate and antibiotics. Cells were plated in the same medium at a density of 2000 cells per well into 96 well tissue culture plates, with outside wells vacant, on the day of assay.
Test compounds supplied in DMSO were diluted into DMSO at 500 times the desired final concentrations before dilution into culture media to 2 times final concentrations. Equal volumes of 2× compounds were added to the cells in 96 well plates and incubated at 37° C. for 3 days.
After 3 days plates were equilibrated to room temperature and equal volume of CellTiter-Glow Reagent (Promega) was added to the culture wells. The plates were agitated briefly and luminescent signal was measured with luminometer.
Using the procedures of Cell Proliferation Assay, the EC50 concentrations of compounds of the examples were determined in KMS11 cells as shown in Table 4.

Pim 2 = Pim 2 (Homo sapiens, UniProt Q9P1W9); assay: Pim 2 AlphaScreen assay (high ATP)
Sequence of Pim 2 (Q9P1W9 whole entry): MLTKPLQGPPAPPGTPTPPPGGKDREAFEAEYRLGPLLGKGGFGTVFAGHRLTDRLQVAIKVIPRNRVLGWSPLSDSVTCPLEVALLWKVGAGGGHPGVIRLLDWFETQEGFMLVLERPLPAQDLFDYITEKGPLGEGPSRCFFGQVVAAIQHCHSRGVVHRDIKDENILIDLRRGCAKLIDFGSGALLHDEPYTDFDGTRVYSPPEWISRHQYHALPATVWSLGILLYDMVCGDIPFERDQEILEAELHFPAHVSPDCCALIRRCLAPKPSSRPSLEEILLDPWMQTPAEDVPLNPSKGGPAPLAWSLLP

Pim 3 = Pim 3 (Homo sapiens, UniProt Q86V86); assay: Pim 3 AlphaScreen assay (high ATP)

Sequence of Pim 1 (P11309 whole entry): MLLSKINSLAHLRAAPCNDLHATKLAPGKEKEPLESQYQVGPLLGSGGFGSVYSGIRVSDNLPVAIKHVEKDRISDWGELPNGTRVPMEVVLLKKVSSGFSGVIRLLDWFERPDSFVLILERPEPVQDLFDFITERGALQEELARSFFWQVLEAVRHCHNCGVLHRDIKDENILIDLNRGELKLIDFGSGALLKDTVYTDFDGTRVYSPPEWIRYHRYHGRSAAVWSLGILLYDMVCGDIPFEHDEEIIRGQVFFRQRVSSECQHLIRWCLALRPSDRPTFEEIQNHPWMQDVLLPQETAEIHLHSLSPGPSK

SMILES | IC50 (Pim 1) | EC50 [1] | IC50 (Pim 2) | IC50 (Pim 3)
C[C@H]1C[C@@H](c2ccncc2NC(=O)c2ccc(F)c(-c3c(F)cc(OCC4(C#N)CCOCC4)cc3F)n2)C[C@@H](N)[C@@H]1O [Example 186, N-(4-((1R,3R,4R,5S)-3-amino-4-hydroxy-5-methylcyclohexyl)pyridin-3-yl)-6-(4-((4-cyanotetrahydro-2H-pyran-4-yl)methoxy)-2,6-difluorophenyl)-5-fluoropicolinamide] | 40 pM | 527000 pM | 3000 pM | 1320 pM
C[C@H]1CN(c2ccncc2NC(=O)c2ccc(F)c(-c3c(F)ccc(OCCO)c3F)n2)C[C@@H](N)[C@@H]1O [Example 31, N-(4-((3R,4R,5S)-3-amino-4-hydroxy-5-methylpiperidin-1-yl)pyridin-3-yl)-6-(2,6-difluoro-3-(2-hydroxyethoxy)phenyl)-5-fluoropicolinamide] |  | 12000 pM | 1360 pM | 
COCCOc1cc(F)c(-c2nc(C(=O)Nc3cnccc3[C@@H]3C[C@H](C)C[C@H](N)C3)c(N)cc2F)c(F)c1 [Example 118, 3-amino-N-(4-((1R,3S,5S)-3-amino-5-methylcyclohexyl)pyridin-3-yl)-6-(2,6-difluoro-4-(2-methoxyethoxy)phenyl)-5-fluoropicolinamide] | 10 pM |  | 1080 pM | 290 pM
CC(C)[C@@H]1C[C@H](N)C[C@H](c2ccncc2NC(=O)c2ccc(F)c(-c3c(F)cc(C4(O)COC4)cc3F)n2)C1 [Example 111, N-(4-((1R,3S,5S)-3-amino-5-isopropylcyclohexyl)pyridin-3-yl)-6-(2,6-difluoro-4-(3-hydroxyoxetan-3-yl)phenyl)-5-fluoropicolinamide] | 10 pM |  | 760 pM | 610 pM
C[C@H]1CN(c2ccncc2NC(=O)c2ccc(F)c(-c3c(F)cc(OC4COC4)cc3F)n2)C[C@@H](N)[C@@H]1O [Example 117, N-(4-((3R,4R,5S)-3-amino-4-hydroxy-5-methylpiperidin-1-yl)pyridin-3-yl)-6-(2,6-difluoro-4-(oxetan-3-yloxy)phenyl)-5-fluoropicolinamide] | 10 pM |  | 650 pM | 160 pM
C[C@@H]1C[C@H](N)C[C@H](c2ccncc2NC(=O)c2ccc(F)c(-c3c(F)cc(CN4CCCC4=O)cc3F)n2)C1 [Example 144, N-(4-((1R,3S,5S)-3-amino-5-methylcyclohexyl)pyridin-3-yl)-6-(2,6-difluoro-4-((2-oxopyrrolidin-1-yl)methyl)phenyl)-5-fluoropicolinamide] |  | 55000 pM | 2610 pM | 
C[C@H]1CN(c2ccncc2NC(=O)c2nc(-c3c(F)cc(OC4CCOCC4)cc3F)c(F)cc2N)C[C@@H](N)[C@@H]1O [Example 115, 3-amino-N-(4-((3R,4R,5S)-3-amino-4-hydroxy-5-methylpiperidin-1-yl)pyridin-3-yl)-6-(2,6-difluoro-4-(tetrahydro-2H-pyran-4-yloxy)phenyl)-5-fluoropicolinamide] | 10 pM |  | 660 pM | 120 pM
C[C@H]1C[C@@H](c2ccncc2NC(=O)c2nc(-c3c(F)cc(OC4CCOCC4)cc3F)c(F)cc2N)C[C@@H](N)[C@@H]1O [Example 87, 3-amino-N-(4-((1R,3R,4R,5S)-3-amino-4-hydroxy-5-methylcyclohexyl)pyridin-3-yl)-6-(2,6-difluoro-4-(tetrahydro-2H-pyran-4-yloxy)phenyl)-5-fluoropicolinamide] |  | 31000 pM | 1460 pM | 
COC(C)(C)c1cc(F)c(-c2nc(C(=O)Nc3cnccc3[C@H]3C[C@@H](N)[C@H](O)[C@@H](C)C3)c(N)cc2F)c(F)c1 [Example 114, 3-amino-N-(4-((1R,3R,4R,5S)-3-amino-4-hydroxy-5-methylcyclohexyl)pyridin-3-yl)-6-(2,6-difluoro-4-(2-methoxypropan-2-yl)phenyl)-5-fluoropicolinamide] | 40 pM |  | 1370 pM | 1290 pM
C[C@H]1CN(c2ccncc2NC(=O)c2ccc(F)c(-c3c(F)cc(OC4CCOCC4)cc3F)n2)C[C@@H](N)[C@@H]1O [Example 116, N-(4-((3R,4R,5S)-3-amino-4-hydroxy-5-methylpiperidin-1-yl)pyridin-3-yl)-6-(2,6-difluoro-4-(tetrahydro-2H-pyran-4-yloxy)phenyl)-5-fluoropicolinamide] | 10 pM |  | 580 pM | 200 pM
CC(C)[C@@H]1C[C@H](N)C[C@H](c2ccncc2NC(=O)c2ccc(F)c(-c3c(F)cc(OC4COC4)cc3F)n2)C1 [Example 183, N-(4-((1R,3S,5S)-3-amino-5-isopropylcyclohexyl)pyridin-3-yl)-6-(2,6-difluoro-4-(oxetan-3-yloxy)phenyl)-5-fluoropicolinamide] |  | 158000 pM | 930 pM | 
COC(C)(C)c1cc(F)c(-c2nc(C(=O)Nc3cnccc3[C@@H]3C[C@H](C)C[C@H](N)C3)c(N)cc2F)c(F)c1 [Example 113, 3-amino-N-(4-((1R,3S,5S)-3-amino-5-methylcyclohexyl)pyridin-3-yl)-6-(2,6-difluoro-4-(2-methoxypropan-2-yl)phenyl)-5-fluoropicolinamide] | 20 pM |  | 1510 pM | 730 pM
CC(C)[C@@H]1C[C@H](N)C[C@H](c2ccncc2NC(=O)c2ccc(F)c(-c3c(F)cc(OC4CCOCC4)cc3F)n2)C1 [Example 110, N-(4-((1R,3S,5S)-3-amino-5-isopropylcyclohexyl)pyridin-3-yl)-6-(2,6-difluoro-4-(tetrahydro-2H-pyran-4-yloxy)phenyl)-5-fluoropicolinamide] | 10 pM |  | 950 pM | 250 pM
COC1(c2cc(F)c(-c3nc(C(=O)Nc4cnccc4N4C[C@@H](N)[C@H](O)[C@@H](C)C4)c(N)cc3F)c(F)c2)COC1 [Example 112, 3-amino-N-(4-((3R,4R,5S)-3-amino-4-hydroxy-5-methylpiperidin-1-yl)pyridin-3-yl)-6-(2,6-difluoro-4-(3-methoxyoxetan-3-yl)phenyl)-5-fluoropicolinamide] | 10 pM |  | 480 pM | 210 pM

Next, values leading:

IC50 (Pim 1) | EC50 [1] | IC50 (Pim 2) | IC50 (Pim 3) | SMILES
40 pM |  | 3510 pM | 750 pM | CCOc1cc(F)c(-c2nc(C(=O)Nc3cnccc3[C@H]3C[C@@H](N)[C@H](O)[C@@H](C)C3)ccc2F)c(F)c1 [Example 226, N-(4-((1R,3R,4R,5S)-3-amino-4-hydroxy-5-methylcyclohexyl)pyridin-3-yl)-6-(4-ethoxy-2,6-difluorophenyl)-5-fluoropicolinamide]
20 pM | 13000 pM | 3280 pM | 720 pM | C[C@@H]1C[C@H](N)C[C@H](c2ccncc2NC(=O)c2ccc(F)c(-c3c(F)cc(OCC(C)(C)O)cc3F)n2)C1 [Example 50, N-(4-((1R,3S,5S)-3-amino-5-methylcyclohexyl)pyridin-3-yl)-6-(2,6-difluoro-4-(2-hydroxy-2-methylpropoxy)phenyl)-5-fluoropicolinamide]
10 pM |  | 2990 pM | 570 pM | C[C@@H]1C[C@H](N)C[C@H](c2ccncc2NC(=O)c2ccc(F)c(-c3c(F)cc(OC[C@H](O)CO)cc3F)n2)C1 [Example 2, N-(4-((1R,3S,5S)-3-amino-5-methylcyclohexyl)pyridin-3-yl)-6-(4-((R)-2,3-dihydroxypropoxy)-2,6-difluorophenyl)-5-fluoropicolinamide]
20 pM | 24000 pM | 2420 pM |  | C[C@@H]1C[C@H](N)C[C@H](c2ccncc2NC(=O)c2ccc(F)c(-c3c(F)cc(C4(O)COC4)cc3F)n2)C1 [Example 55, N-(4-((1R,3S,5S)-3-amino-5-methylcyclohexyl)pyridin-3-yl)-6-(2,6-difluoro-4-(3-hydroxyoxetan-3-yl)phenyl)-5-fluoropicolinamide]
60 pM |  | 8920 pM | 1450 pM | CCOc1ccc(F)c(-c2nc(C(=O)Nc3cnccc3[C@@H]3C[C@H](C)C[C@H](N)C3)ccc2F)c1F [Example 213, N-(4-((1R,3S,5S)-3-amino-5-methylcyclohexyl)pyridin-3-yl)-6-(3-ethoxy-2,6-difluorophenyl)-5-fluoropicolinamide]
20 pM | 285000 pM | 3740 pM |  | C[C@@H]1C[C@H](N)C[C@H](c2ccncc2NC(=O)c2ccc(F)c(-c3c(F)cc(C4=CCCC4)cc3F)n2)C1 [Example 160]
20 pM |  | 1780 pM | 510 pM | CCOc1cc(F)c(-c2nc(C(=O)Nc3cnccc3[C@@H]3C[C@H](C)C[C@H](N)C3)ccc2F)c(F)c1 [Example 225, N-(4-((1R,3S,5S)-3-amino-5-methylcyclohexyl)pyridin-3-yl)-6-(4-ethoxy-2,6-difluorophenyl)-5-fluoropicolinamide]
 | 21000 pM |  |  | C[C@@H]1C[C@H](N)C[C@H](c2ccncc2NC(=O)c2ccc(F)c(-c3c(F)cc([C@H](C)O)cc3F)n2)C1 [Example 73, N-(4-((1R,3S,5S)-3-amino-5-methylcyclohexyl)pyridin-3-yl)-6-(2,6-difluoro-4-((S)-1-hydroxyethyl)phenyl)-5-fluoropicolinamide]
 | 64000 pM |  |  | C[C@@H]1C[C@H](N)C[C@H](c2ccncc2NC(=O)c2ccc(F)c(-c3c(F)cc(CO)cc3F)n2)C1 [Example 224, N-(4-((1R,3S,5S)-3-amino-5-methylcyclohexyl)pyridin-3-yl)-6-(2,6-difluoro-4-(hydroxymethyl)phenyl)-5-fluoropicolinamide]
